Bridge positions count the residues as written; N and C are the ends. Square brackets hold non-standard residues; d marks the D form. Peptide text beside a SMILES is read from it. 1Nal = N[C@@H](Cc1cccc2ccccc12)C(=O)O; His(π-Me) = Cn1cncc1C[C@H](N)C(=O)O; NMeF = CN[C@@H](Cc1ccccc1)C(=O)O; Aib = CC(C)(N)C(=O)O
How the values were obtained:
E. coli BW25113 = experiment: Minimum Inhibitory Concentration (MIC) determination, E. coli BW25113; assay type: cell-based; parameters: unit not given here; conditions: LB broth, 5×10^5 CFU/ml, 37° C., 18 hours, scored by eye
Protocol: (§1) MICs were determined by performing two-fold serial dilutions of peptides in LB broth to a final volume of 0.1 ml in round-bottom 96-well assay plates (Corning Life Sciences No 3788). Peptides were initially resuspended in 100% DMSO to 10 mM and subsequently diluted in LB medium to the appropriate concentration. Each well was inoculated with 5×10^5 CFU/ml of the screening stain and incubated at 37° C. without agitation for 18 hours. Plates were scored by eye, and the lowest compound concentration preventing visible growth was determined to be the MIC.

E. coli 25922 IMP = experiment: Minimum Inhibitory Concentration (MIC) determination, E. coli 25922 IMP; assay type: cell-based; conditions: LB broth, 5×10^5 CFU/ml, 37° C., 18 hours, scored by eye
Protocol: as §1

| Structure (SMILES) | MIC E. coli BW25113 WUXI::MIC (E. coli BW25113) | MIC E. coli 25922 IMP WUXI::MIC (E. coli 25922 IMP) |
| --- | --- | --- |
| CC[C@H](C)[C@@H]1NC(=O)C(C)(C)NC(=O)[C@H](Cc2cncn2C)NC(=O)[C@H](Cc2ccccc2)NC(=O)CSC[C@@H](C(=O)NCC(N)=O)NC(=O)[C@H](Cc2ccc(O)cc2)NC(=O)[C@H](Cc2c[nH]c3ccccc23)NC(=O)[C@H](Cc2ccc(O)cc2)NC(=O)[C@H](Cc2cncn2C)NC(=O)[C@H](Cc2ccccc2)NC(=O)C(C)(C)NC(=O)[C@H](CCCNC(=N)N)NC(=O)[C@H](CCCCN)NC(=O)[C@H](CCCNC(=N)N)NC1=O [Compound 56] ({CH2CO}-F[His(π-Me)][Aib]IRKR[Aib]F[His(π-Me)]YWYCG-NH2; thioether N-14) | >32 | 8 |
| CC[C@H](C)[C@@H]1NC(=O)C(C)(C)NC(=O)[C@H](Cc2cncn2C)NC(=O)[C@H](Cc2ccccc2)NC(=O)CSC[C@@H](C(=O)NCC(N)=O)NC(=O)[C@H](Cc2ccc(O)cc2)NC(=O)[C@H](Cc2c[nH]c3ccccc23)NC(=O)[C@H](Cc2ccc(O)cc2)NC(=O)[C@H](CCCNC(=N)N)NC(=O)[C@H](Cc2ccccc2)NC(=O)C(C)(C)NC(=O)[C@H](CCCNC(=N)N)NC(=O)[C@H](CCCCN)NC(=O)[C@H](CCCNC(=N)N)NC1=O [Compound 57] ({CH2CO}-F[His(π-Me)][Aib]IRKR[Aib]FRYWYCG-NH2; thioether N-14) | >32 | 2 |
| CC(C)[C@@H]1NC(=O)[C@H](Cc2ccccc2)NC(=O)CSC[C@@H](C(=O)NCC(N)=O)NC(=O)[C@H](Cc2cncn2C)NC(=O)[C@H](CCCNC(=N)N)NC(=O)[C@H](Cc2cnc[nH]2)NC(=O)[C@H](Cc2ccccc2)N(C)C(=O)[C@H](CCCNC(=N)N)NC(=O)[C@H](CO)NC(=O)CNC(=O)[C@H](Cc2c[nH]cn2)NC(=O)[C@H](Cc2cccc3ccccc23)NC1=O [Compound 6, (3R,6S,9S,12S,15S,18S,21S,27S,30S, 33S,36S)-N-(2-amino-2-oxo-ethyl)-15,36-dibenzyl-9,18-bis(3-guanidinopropyl)-21-(hydroxymethyl)-12,27-bis(1H-imidazol-4-ylmethyl)-33-isopropyl-16-methyl-6-[(3-methylimidazol-4-yl)methyl]-30-(1-naphthylmethyl)-5,8,11,14,17,20,23,26,29,32,35,38-dodecaoxo-1-thia-4,7,10,13,16,19,22,25,28,31,34,37-dodecazacyclononatriacontane-3-carboxamide] ({CH2CO}-FV[1Nal]HGSR[NMeF]HR[His(π-Me)]CG-NH2; thioether N-12) | 2 | <0.000125 |
| CC[C@@H]1NC(=O)[C@H](Cc2ccccc2)NC(=O)CSC[C@@H](C(=O)NCC(N)=O)NC(=O)[C@H](Cc2cncn2C)NC(=O)[C@H](CCCNC(=N)N)NC(=O)[C@H](Cc2cnc[nH]2)NC(=O)[C@H](Cc2ccc(O)cc2)N(C)C(=O)[C@H](CCCNC(=N)N)NC(=O)[C@H](CO)NC(=O)CNC(=O)[C@H](Cc2cnc[nH]2)NC(=O)[C@H](Cc2c[nH]c3ccccc23)NC1=O (racemic) [Compound 12] | 1 | 3.8137E−06 |
| CC[C@H](C)[C@@H]1NC(=O)[C@H]([C@@H](C)O)NC(=O)[C@H](Cc2cncn2C)NC(=O)[C@H](Cc2ccccc2)NC(=O)CSC[C@@H](C(=O)NCC(N)=O)NC(=O)[C@H](Cc2ccc(O)cc2)NC(=O)[C@H](Cc2c[nH]c3ccccc23)NC(=O)[C@H](Cc2ccc(O)cc2)NC(=O)[C@H](CCCNC(=N)N)NC(=O)[C@H](Cc2ccccc2)NC(=O)C(C)(C)NC(=O)[C@H](CCCNC(=N)N)NC(=O)[C@H](CCCCN)NC(=O)[C@H](CCCNC(=N)N)NC1=O [Compound 52] ({CH2CO}-F[His(π-Me)]TIRKR[Aib]FRYWYCG-NH2; thioether N-14) | 1 | 0.125 |
